Assays:
Assay type in all cases: in vivo
[1] = tested on: Alopecurus myosuroides; experiment: Pre-emergence herbicidal effect; details: 80 g/ha, scored visually after 3 weeks, 100% = plants have died, 0% = like control plants
Excerpt: (§1) Seeds of monocotyledonous and dicotyledonous weed plants and crop plants are laid out in sandy loam soil in wood-fiber pots and covered with soil. The compounds of the invention, formulated in the form of wettable powders (WP) or as emulsion concentrates (EC), are then applied to the surface of the covering soil as aqueous suspension or emulsion at a water application rate equating to 600 to 800 L/ha with addition of 0.2% wetting agent.
(§2) After the treatment, the pots are placed in a greenhouse and kept under good growth conditions for the trial plants. The damage to the test plants is scored visually after a test period of 3 weeks by comparison with untreated controls (herbicidal activity in percent (%): 100% activity=the plants have died, 0% activity=like control plants).

[2] = tested on: Avena fatua; experiment: Pre-emergence herbicidal effect; details: 80 g/ha, scored visually after 3 weeks, 100% = plants have died, 0% = like control plants
Excerpt: as §1, §2

[3] = tested on: Echinochloa crus-galli; experiment: Pre-emergence herbicidal effect; details: 80 g/ha, scored visually after 3 weeks, 100% = plants have died, 0% = like control plants
Excerpt: as §1, §2

[4] = tested on: Hordeum murinum; experiment: Pre-emergence herbicidal effect; details: 80 g/ha, scored visually after 3 weeks, 100% = plants have died, 0% = like control plants
Excerpt: as §1, §2

[5] = tested on: Lolium rigidum; experiment: Pre-emergence herbicidal effect; details: 80 g/ha, scored visually after 3 weeks, 100% = plants have died, 0% = like control plants
Excerpt: as §1, §2

[6] = tested on: Setaria viridis; experiment: Pre-emergence herbicidal effect; details: 80 g/ha, scored visually after 3 weeks, 100% = plants have died, 0% = like control plants
Excerpt: as §1, §2

[7] = tested on: Alopecurus myosuroides; experiment: Post-emergence herbicidal effect; details: 80 g/ha, post-emergence at one-leaf stage, assessed visually after about 3 weeks; 100% = plants have died, 0% = like control plants
Protocol: (§3) Seeds of monocotyledonous and dicotyledonous weed and crop plants are laid out in sandy loam soil in wood-fiber pots, covered with soil and cultivated in a greenhouse under good growth conditions. 2 to 3 weeks after sowing, the test plants are treated at the one-leaf stage. The compounds of the invention, formulated in the form of wettable powders (WP) or as emulsion concentrates (EC), are then sprayed onto the green parts of the plants as aqueous suspension or emulsion at a water application rate equating to 600 to 800 l/ha with addition of 0.2% wetting agent. After the test plants have been left to stand in the greenhouse under optimal growth conditions for about 3 weeks, the action of the preparations is assessed visually in comparison to untreated controls (herbicidal action in per cent (%): 100% activity=the plants have died, 0% activity=like control plants).

[8] = tested on: Digitaria sanguinalis; experiment: Post-emergence herbicidal effect; details: 80 g/ha, post-emergence at one-leaf stage, assessed visually after about 3 weeks; 100% = plants have died, 0% = like control plants
Protocol: as §3

[9] = tested on: Echinochloa crus-galli; experiment: Post-emergence herbicidal effect; details: 80 g/ha, post-emergence at one-leaf stage, assessed visually after about 3 weeks; 100% = plants have died, 0% = like control plants
Protocol: as §3

[10] = tested on: Hordeum murinum; experiment: Post-emergence herbicidal effect; details: 80 g/ha, post-emergence at one-leaf stage, assessed visually after about 3 weeks; 100% = plants have died, 0% = like control plants
Protocol: as §3

[11] = tested on: Lolium rigidum; experiment: Post-emergence herbicidal effect; details: 80 g/ha, post-emergence at one-leaf stage, assessed visually after about 3 weeks; 100% = plants have died, 0% = like control plants
Protocol: as §3

[12] = tested on: Setaria viridis; experiment: Post-emergence herbicidal effect; details: 80 g/ha, post-emergence at one-leaf stage, assessed visually after about 3 weeks; 100% = plants have died, 0% = like control plants
Protocol: as §3

Structure (SMILES) | Pre-emergence action against ALOMY (herbicidal activity in percent) [1] | Pre-emergence action against AVEFA (herbicidal activity in percent) [2] | Pre-emergence action against ECHCG (herbicidal activity in percent) [3] | Pre-emergence action against HORMU (herbicidal activity in percent) [4] | Pre-emergence action against LOLRI (herbicidal activity in percent) [5] | Pre-emergence action against SETVI (herbicidal activity in percent) [6] | Post-emergence action against ALOMY (herbicidal action in per cent) [7] | Post-emergence action against DIGSA (herbicidal action in per cent) [8] | Post-emergence action against ECHCG (herbicidal action in per cent) [9] | Post-emergence action against HORMU (herbicidal action in per cent) [10] | Post-emergence action against LOLRI (herbicidal action in per cent) [11] | Post-emergence action against SETVI (herbicidal action in per cent) [12]
C#Cc1cc(Br)c(C2=C([O-])C3(CCCC(OCCOC)C3)NC2=O)c(OC)c1.[Na+] (stereo not shown) [Example 1.1.06] | 100% | 100% | 100% | 100% | 100% | 100% | 100% | 100% | 100% | 90% | 100% | 90%
CC#Cc1cc(Br)c(C2=C([O-])C3(CCCC(OCCOC)C3)NC2=O)c(OCC)c1.[Na+] (stereo not shown) [Example 1.1.18] |  |  |  |  |  |  | 100% | 100% | 100% | 100% | 100% | 100%
C#Cc1cc(Br)c(C2=C(O)C3(CCCC(OCCC)C3)NC2=O)c(OC)c1 (stereo not shown) [Example 1.1.01] | 90% | 100% | 100% | 90% | 100% | 100% | 90% | 90% | 100% | 80% | 90% | 100%
CC#Cc1cc(Br)c(C2=C(O)C3(CCCC(OCCOC)C3)NC2=O)c(OC)c1 (stereo not shown) [Example 1.1.13] | 100% | 100% | 100% | 100% | 100% | 100% | 100% |  | 100% | 100% | 100% | 100%
C#Cc1cc(Br)c(C2=C([O-])C3(CCCC(OCCC)C3)NC2=O)c(OC)c1.[Na+] (stereo not shown) [Example 1.1.02] | 100% | 100% | 100% | 100% | 100% | 100% | 100% | 100% | 100% | 100% | 100% | 100%
CC#Cc1cc(Br)c(C2=C([O-])C3(CCCC(OCCC)C3)NC2=O)c(OC)c1.[Na+] (stereo not shown) [Example 1.1.10] | 90% | 100% | 100% | 100% | 100% | 100% | 90% |  | 100% | 100% | 90% | 90%
CC#Cc1cc(Br)c(C2=C(OC(=O)OCC)C3(CCCC(OCCOC)C3)NC2=O)c(OCC)c1 (stereo not shown) [Example 1.1.19] |  |  |  |  |  |  | 100% | 100% | 100% | 100% | 100% | 100%
CC#Cc1cc(Br)c(C2=C(O)C3(CCCC(OCCOC)C3)NC2=O)c(OCC)c1 (stereo not shown) [Example 1.1.17] |  |  |  |  |  |  | 100% | 100% | 100% | 100% | 100% | 100%

Source: patent publication US20230059463A1, “3-(2-BROMO-4-ALKYNYL-6-ALKOXYPHENYL)-SUBSTITUTED 5-SPIROCYCLOHEXYL-3-PYRROLIN-2-ONES AND THEIR USE AS HERBICIDES” (Bayer Aktiengesellschaft, priority 2019, published 2023)
